Assays:
[1] = test system: giant foxtail; assay: Test B pre/postemergence giant foxtail; assay type: in vivo, Setaria faberii
Procedure, shortened: (§1)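 Response is a visual 0-to-10 score relative to untreated plants, where 0 means no effect and 10 means complete control, taken twelve to sixteen days after application. Treatments went onto soil at planting and onto foliage of 1- to 4-leaf plants, using a surfactant-containing non-phytotoxic solvent.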

[2] = test system: purple nutsedge; assay: Test B pre/postemergence purple nutsedge; assay type: in vivo, Cyperus rotundus
Procedure, shortened: as §1

[3] = test system: duck salad; assay: Test B flood test duck salad; assay type: in vivo, Heteranthera limosa
Procedure, shortened: (§2)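 Each value is a visual injury score relative to controls, with 10 meaning complete control and 0 no effect. Evaluation took place twelve to sixteen days after the 2-leaf-stage plants were treated and kept in the greenhouse.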

[4] = test system: blackgrass; assay: Test B pre/postemergence blackgrass; assay type: in vivo, Alopecurus myosuroides
Procedure, shortened: as §1

[5] = test system: velvetleaf; assay: Test B pre/postemergence velvetleaf; assay type: in vivo, Abutilon theophrasti
Procedure, shortened: as §1

[6] = test system: pigweed; assay: Test B pre/postemergence pigweed; assay type: in vivo, Amaranthus retroflexus
Procedure, shortened: as §1

[7] = test system: crabgrass; assay: Test B pre/postemergence crabgrass; assay type: in vivo, Digitaria sanguinalis
Procedure, shortened: as §1

[8] = test system: bedstraw; assay: Test B pre/postemergence bedstraw; assay type: in vivo, Galium aparine
Procedure, shortened: as §1

[9] = test system: rice; assay: Test B flood test rice; assay type: in vivo, Oryza sativa
Procedure, shortened: as §2

[10] = test system: soybean; assay: Test B pre/postemergence soybean; assay type: in vivo, Glycine max
Procedure, shortened: as §1

[11] = test system: surinam grass; assay: Test B pre/postemergence surinam grass; assay type: in vivo, Brachiaria decumbens
Procedure, shortened: as §1

[12] = test system: wild oat; assay: Test B pre/postemergence wild oat; assay type: in vivo, Avena fatua
Procedure, shortened: as §1

[13] = test system: cocklebur; assay: Test B pre/postemergence cocklebur; assay type: in vivo, Xanthium strumarium
Procedure, shortened: as §1

[14] = test system: corn; assay: Test B pre/postemergence corn; assay type: in vivo, Zea mays
Procedure, shortened: as §1

[15] = test system: wheat; assay: Test B pre/postemergence wheat; assay type: in vivo, Triticum aestivum
Procedure, shortened: as §1

[16] = test system: sugar beet; assay: Test B pre/postemergence sugar beet; assay type: in vivo, Beta vulgaris
Procedure, shortened: as §1

[17] = Postemergence, Rate 125 g/ha, scale of 0 to 10 where 0 is no effect and 10 is complete control
[18] = Preemergence, Rate 62 g/ha, scale 0 to 10 (0 no effect, 10 complete control)
[19] = Preemergence, Rate 125 g/ha, 0 is no effect, 10 is complete control
[20] = Preemergence, Rate 250 g/ha, scale 0 to 10, 0 is no effect, 10 is complete control
[21] = Preemergence, Rate 500 g/ha, scale 0 to 10 (0 no effect, 10 complete control)
[22] = Rate 62 g/ha, Postemergence, scale of 0 to 10 where 0 is no effect and 10 is complete control
[23] = Rate 250 g/ha, Postemergence, scale 0 to 10, 0 is no effect, 10 is complete control
[24] = Rate 500 g/ha, Postemergence, scale 0 to 10
[25] = Postemergence (flood test species), Rate 125 g/ha, scale of 0 to 10 where 0 is no effect and 10 is complete control
[26] = Rate 62 g/ha, Postemergence section, flood test species, scale of 0 to 10 where 0 is no effect and 10 is complete control
[27] = Rate 250 g/ha, Postemergence (flood test), scale 0 to 10, 0 is no effect, 10 is complete control
[28] = Rate 500 g/ha, listed under Postemergence (flood test species), scale 0 to 10

COc1ccccc1Cn1c(=O)on(C(=O)N(c2ccc(F)cc2)C(C)C)c1=O [Compound 143]
Giant foxtail plant response rating [1, 17]: 2
Giant foxtail plant response rating [1, 18]: 3
Giant foxtail plant response rating (0 to 10 scale) [1, 19]: 9
Giant foxtail plant response rating [1, 20]: 9
Giant foxtail plant response rating [1, 21]: 10
Giant foxtail plant response rating [1, 22]: 0
Plant response rating, Giant foxtail [1, 23]: 5
Giant foxtail plant response rating [1, 24]: 7
Nutsedge plant response rating [2, 17]: 0
Nutsedge plant response rating [2, 18]: 0
Nutsedge plant response rating (0 to 10 scale) [2, 19]: 0
Nutsedge plant response rating [2, 20]: 0
Nutsedge plant response rating [2, 21]: 0
Nutsedge plant response rating [2, 22]: 0
Plant response rating, Nutsedge [2, 23]: 0
Nutsedge plant response rating [2, 24]: 0
Ducksalad plant response rating [3, 25]: 0
Ducksalad plant response rating [3, 26]: 0
Plant response rating, Ducksalad [3, 27]: 0
Ducksalad plant response rating [3, 28]: 5
Blackgrass plant response rating [4, 17]: 3
Blackgrass plant response rating [4, 18]: 4
Blackgrass plant response rating (0 to 10 scale) [4, 19]: 5
Blackgrass plant response rating [4, 20]: 5
Blackgrass plant response rating [4, 21]: 6
Blackgrass plant response rating [4, 22]: 3
Plant response rating, Blackgrass [4, 23]: 5
Blackgrass plant response rating [4, 24]: 8
Velvetleaf plant response rating [5, 17]: 2
Velvetleaf plant response rating [5, 18]: 0
Velvetleaf plant response rating (0 to 10 scale) [5, 19]: 0
Velvetleaf plant response rating [5, 20]: 0
Velvetleaf plant response rating [5, 21]: 0
Velvetleaf plant response rating [5, 22]: 2
Plant response rating, Velvetleaf [5, 23]: 2
Velvetleaf plant response rating [5, 24]: 2
Redroot pigweed plant response rating [6, 17]: 5
Redroot pigweed plant response rating (0 to 10 scale) [6, 19]: 0
Redroot pigweed plant response rating [6, 20]: 4
Redroot pigweed plant response rating [6, 21]: 10
Redroot pigweed plant response rating [6, 22]: 3
Plant response rating, Redroot pigweed [6, 23]: 5
Redroot pigweed plant response rating [6, 24]: 6
Crabgrass plant response rating [7, 17]: 8
Crabgrass plant response rating [7, 18]: 3
Crabgrass plant response rating (0 to 10 scale) [7, 19]: 7
Crabgrass plant response rating [7, 20]: 8
Crabgrass plant response rating [7, 21]: 10
Crabgrass plant response rating [7, 22]: 1
Plant response rating, Crabgrass [7, 23]: 8
Crabgrass plant response rating [7, 24]: 9
Bedstraw plant response rating [8, 17]: 6
Bedstraw plant response rating [8, 18]: 0
Bedstraw plant response rating (0 to 10 scale) [8, 19]: 0
Bedstraw plant response rating [8, 20]: 0
Bedstraw plant response rating [8, 21]: 0
Bedstraw plant response rating [8, 22]: 5
Plant response rating, Bedstraw [8, 23]: 6
Bedstraw plant response rating ([8]; Rate 500 g/ha, Postemergence, scale 0 to 10, 0 no effect, 10 complete control): 8
Rice plant response rating [9, 25]: 0
Rice plant response rating [9, 26]: 0
Plant response rating, Rice [9, 27]: 2
Rice plant response rating [9, 28]: 4
Soybean plant response rating [10, 17]: 3
Soybean plant response rating [10, 18]: 0
Soybean plant response rating (0 to 10 scale) [10, 19]: 0
Soybean plant response rating [10, 20]: 0
Soybean plant response rating [10, 21]: 1
Soybean plant response rating [10, 22]: 3
Plant response rating, Soybean [10, 23]: 4
Soybean plant response rating [10, 24]: 5
B. signalgrass plant response rating [11, 17]: 0
B. signalgrass plant response rating [11, 18]: 0
B. signalgrass plant response rating (0 to 10 scale) [11, 19]: 0
B. signalgrass plant response rating [11, 20]: 2
B. signalgrass plant response rating [11, 21]: 5
B. signalgrass plant response rating [11, 22]: 0
Plant response rating, B. signalgrass [11, 23]: 0
B. signalgrass plant response rating ([11]; Rate 500 g/ha, Postemergence, scale of 0 to 10 where 0 is no effect and 10 is complete control): 5
Wild oats plant response rating [12, 17]: 0
Wild oats plant response rating [12, 18]: 0
Wild oats plant response rating (0 to 10 scale) [12, 19]: 5
Wild oats plant response rating [12, 20]: 5
Wild oats plant response rating [12, 21]: 5
Wild oats plant response rating [12, 22]: 0
Plant response rating, Wild oats [12, 23]: 0
Wild oats plant response rating [12, 24]: 0
Cocklebur plant response rating [13, 17]: 3
Cocklebur plant response rating [13, 18]: 0
Cocklebur plant response rating (0 to 10 scale) [13, 19]: 0
Cocklebur plant response rating [13, 21]: 0
Cocklebur plant response rating [13, 22]: 1
Plant response rating, Cocklebur [13, 23]: 3
Cocklebur plant response rating [13, 24]: 4
Corn plant response rating [14, 17]: 0
Corn plant response rating [14, 18]: 0
Corn plant response rating (0 to 10 scale) [14, 19]: 0
Corn plant response rating [14, 20]: 0
Corn plant response rating [14, 21]: 0
Corn plant response rating [14, 22]: 0
Plant response rating, Corn [14, 23]: 0
Corn plant response rating [14, 24]: 0
Wheat plant response rating [15, 17]: 0
Wheat plant response rating [15, 18]: 0
Wheat plant response rating (0 to 10 scale) [15, 19]: 0
Wheat plant response rating [15, 20]: 0
Wheat plant response rating [15, 21]: 0
Wheat plant response rating [15, 22]: 0
Plant response rating, Wheat [15, 23]: 0
Wheat plant response rating [15, 24]: 0
Sugarbeets plant response rating [16, 17]: 6
Sugarbeets plant response rating [16, 18]: 0
Sugarbeets plant response rating (0 to 10 scale) [16, 19]: 1
Sugarbeets plant response rating [16, 20]: 3
Sugarbeets plant response rating [16, 21]: 9
Sugarbeets plant response rating [16, 22]: 1
Plant response rating, Sugarbeets [16, 23]: 6
Sugarbeets plant response rating [16, 24]: 6

Reference: US6737383B1, “Herbicidal oxadiazolidines” (priority 1999, dated 2004)
